Experimental data reported in patent publication US11974983B2 (Duke University, priority 2018, dated 2024).
Read-outs that look alike come from different tables or passages of the source.

What was measured:
[1] = Cmax in blood at doses used in prior clinical trials; assay type: in vivo; settings: dose 1 mg; read-out: Converted (M) Cmax
Excerpt: See Maximov et al., Current Clinical Pharmacology 8(2): 135-155 (2013). […] See Assessment Report for Fablyn, 2009 (EMA). […] See Gardner et al., J Clin Pharmacol 46(1): 52-58 (2006).

[2] = in blood, cited from earlier work
MCF7 D538G = assay: Mammary intraductal (MIND) xenograft model, MCF7 D538G; assay type: in vivo, NSG mice
Description: MCF7 cells were engineered with CRISPR/Cas9 to express ERα with Y537S and D538G mutations. To mimic the natural environment of infiltrating ductal ERα^+ breast cancers, NSG™ mice were injected, via the nipple in the inguinal mammary glands, with three MCF7 cell variants: wild type MCF7 cells (MCF7 WT), MCF7 cells expressing Y537S mutant ERα (MCF7 Y537S), and MCF7 cells expressing D538G mutant ERα (MCF7 D538G), respectively. Prior to injection, the MCF7 cells were labeled with a luciferase reporter to monitor tumor growth in vivo using a Xenogen IVIS imager. […] FIG. 4 summarizes the experimental design.

ERα Y537S mutant LBD = molecular target: T1, ERα Y537S mutant LBD (Homo sapiens, UniProt P03372, C381S/C417S/C530S/Y537S); assay: X-ray crystal structure of ligand-bound ERα Y537S mutant LBD
T1 construct: 6x-His-TEV (N, cleaved yes); made in house; host or cells: E. coli BL21(DE3)
T1 sequence (P03372 311-547 C381S/C417S/C530S/Y537S limits assumed): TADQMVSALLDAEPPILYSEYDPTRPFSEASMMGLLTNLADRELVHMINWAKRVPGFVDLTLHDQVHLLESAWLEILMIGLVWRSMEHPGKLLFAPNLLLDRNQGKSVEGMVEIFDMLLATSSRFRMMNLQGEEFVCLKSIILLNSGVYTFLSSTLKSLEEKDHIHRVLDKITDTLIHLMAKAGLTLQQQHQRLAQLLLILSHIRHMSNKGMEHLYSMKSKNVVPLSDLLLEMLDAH
Description: 6x-His-TEV-Estrogen receptor alpha ligand binding domain containing C381S, C417S, C530S with L536S or Y537S mutations were expressed in E. coli BL21(DE3). The L536S mutant stabilizes the wild-type antagonist conformation and Y537S is an activating somatic mutation that has been identified in patients with acquired hormone resistance. Both proteins were purified using Ni-NTA resin, the 6x-His tag was cleaved using tev protease, removed using Ni-NTA resin, and a final purification was performed by passing the protein over a size exclusion column. The main peak was concentrated to 10 mg/mL and flash frozen.
Hanging drop vapor diffusion was used to crystallize the complexes. The L536S-Laso (lasofoxifene-bound ERα wild-type LBD) complex formed clear hexagonal crystals in 25% PEG 8,000, 200 mM MgCl2, HEPES pH 7.5 after two weeks at room temperature. The Y537S-Laso (lasofoxifene-bound ERα Y537S mutant LBD) complex formed rectangular crystals in 20% PEG 3.35K, 200 mM MgCl2, HEPES pH 6.5 after one week at room temperature.
Crystals were cryo-protected in 25% glycerol in mother liquor and flash frozen in liquid nitrogen. All x-ray crystallographic data sets were collected at the Advanced Photon Source. The L536S-Laso complex diffracted to 1.8 Å and the Y537S-Laso complex diffracted to 2.1 Å by cc^1/2 over 50%. Phaser was used for molecular replacement with 5UFX as the model. […]

[3] = test system: wild-type ERα and ERα LBD mutants Y537S, Y537N, Y537C, D538G; assay: ERE-luciferase reporter assay in Caov2 and SKBR3 cells (statements on all receptors); assay type: cell-based
Description: ExSite mutagenesis was performed using the corresponding primers as summarized in Table 1 below on a pENTR2B ERα WT construct using Pfu ultra taq polymerase. The primers were PNK phosphorylated. Following PCR amplification, the products were digested with DpnI at 37° C. for 1 hr, followed by overnight ligation at 16° C. Ligated products were transformed into DH5α bacterial cells and grown on kanamycin resistant plates. The pENTR clones were verified by sequencing and then swapped into the pcDNA-DEST vector using the Gateway system (Invitrogen) for expression analysis.
Caov2 ovarian carcinoma cells were grown in RPMI-1640 media (Gibco) supplemented with 8% Fetal Bovine Serum (FBS), Sodium Pyruvate (NaPyr) and non-essential amino acids (NEAA) and passaged every 2-3 days. SKBR3 breast adenocarcinoma cells were grown in DMEM media (Gibco) supplemented with 8% Fetal Bovine Serum (FBS), Sodium Pyruvate (NaPyr) and non-essential amino acids (NEAA) and passaged every 2-3 days. […]
Caov2 cells were co-transfected with the 7X-TK-ERE-TATA luciferase reporter gene (Nagel et al., Endocrinology 142(11): 4721-4728 (2001)) and expression constructs for either wild-type or mutant receptors using Fugene transfection reagent (Promega). […] Following 24 hours of treatment, cells were lysed and the luciferase and β-gal assays were performed as described previously (Norris et al., J Biol Chem 270(39): 22777-22782 (1995)) and the plates were read on the Fusion α-FP HT plate reader (PerkinElmer Life Sciences).
See Jeselsohn et al., Nature Reviews Clinical Oncology 12(10): 573-583 (2015); Jeselsohn et al., Clinical Cancer Research 20(7): 1757-1767 (2014); Robinson et al., Nature Genetics 45(12): 1446-1451(2013); Thomas and Gustafsson, Trends in Endocrinology and Metabolism 26(9): 467-476 (2015); and Toy et al., Nature Genetics 45(12): 1439-1445 (2013). The activity of these mutants was evaluated in a reconstituted estrogen response element (ERE)-luciferase reporter assay in Caov2 ovarian carcinoma cells and SKBR3 breast adenocarcinoma cells. […]

## Oc1ccc2c(c1)CC[C@H](c1ccccc1)[C@@H]2c1ccc(OCCN2CCCC2)cc1 [Lasofoxifene, lasofoxifene]
[1]
  Cmax: 1.55e-08 M
[2]; dose 0.5 mg
  Reported Cmax: 3.6 ng/mL
[2]; dose 1 mg
  Reported Cmax: 6.43 ng/mL
MCF7 D538G; MCF7 D538G mice, 10 mg/kg five times per week subcutaneous
  tumor growth monitored by total flux: most significantly inhibited
MCF7 D538G; MCF7 D538G, 5 mg/kg and 10 mg/kg, after 70 days
  tumor weight, compared to fulvestrant: significantly more effective
MCF7 D538G; MCF7 D538G, 10 mg/kg, after 70 days of treatment
  tumor growth measured by tumor weight, compared to vehicle control: significantly inhibited
MCF7 D538G; MCF7 D538G, all tested doses (1, 5, 10 mg/kg), after 70 days
  liver metastasis: effective in reducing liver metastasis at all tested doses
ERα Y537S mutant LBD
  loop between helix 11 and helix 12 in the crystal structure: absent
[3]; all tested ERα LBD mutants, in presence of 1 nM 17-β estradiol, Caov2 and SKBR3 cells
  inhibition of the transcriptional activity of the ERα mutants: effectively inhibited the transcriptional activity of all tested ERα LBD mutants in a dose-response manner
[3]; each mutant versus WT receptor
  response of mutants to inhibitory action compared with WT receptor: reduced response
